Assay results reported in patent publication US12698269B2, “1-aryltetrahydropyridazine-3,5-dione derivative or salt thereof and insecticidal agent containing the compound and method for using same” (NIHON NOHYAKU CO., LTD., priority 2022, dated 2026).

What was measured:
Format in all cases: in vivo
[1] = test system: Western Flower thrips (Frankliniella occidentalis); experiment: Insecticidal test on western flower thrips, kidney bean leaf pieces; details: 96 h, 4 days after treatment, read-out: insecticidal efficacy (corrected mortality rate) against western flower thrips
Description: Insecticidal Test on Western Flower thrips (Frankliniella occidentalis)
Female adults of western flower thrips were inoculated onto kidney bean leaf pieces, and allowed to lay eggs thereon for one day, then the female adults were removed. After 3 days, the hatched larvae on the leaf pieces were counted, and then the agrochemical dispersions diluted to 50 ppm or 500 ppm, each of which contained the compound described in Tables 1 to 4 as an active ingredient were applied. The number of larvae of the species surviving at 4 days after the treatment was counted, and the corrected mortality rate was calculated according to the formula shown below, and the insecticidal efficacy was evaluated according to the criteria of Test Example 1. This test was conducted in duplicate. Corrected mortality rate (%)=(Survival rate in a non-treatment plot−Survival rate in a treatment plot)/(Survival rate in a non-treatment plot)×100 [Expression 3]

[2] = test system: Diamondback moth (Plutella xylostella); experiment: Insecticidal test on diamondback moth, dip treatment of Chinese cabbage seedlings with laid eggs; details: 144 h, 6 days after treatment, read-out: insecticidal efficacy (corrected mortality rate) against diamondback moth
Description: Insecticidal Test on Diamondback moth (Plutella xylostella)
Adults of diamondback moth were released onto Chinese cabbage seedlings and allowed to lay eggs thereon. At 2 days after the release of the adults, the Chinese cabbage seedlings with laid eggs were dipped for about 30 seconds in agrochemical dispersions diluted to 50 ppm or 500 ppm, each of which contained a different compound represented by the general formula (1) of the present invention as an active ingredient. After air-dried, the seedlings were kept in a thermostatic chamber at 25° C. At 6 days after the dip treatment, the number of surviving larvae per plot was counted, the corrected mortality rate was calculated according to the formula shown below, and the insecticidal efficacy was evaluated according to the criteria shown below. This test was conducted in triplicate using 10 adults of diamondback moth per plot. Corrected mortality rate (%)=(Survival rate in a non-treatment plot−Survival rate in a treatment plot)/(Survival rate in a non-treatment plot)×100 [Expression 1] Criteria: • A: the mortality rate is 100%. • B: the mortality rate is 90 to 99%. • C: the mortality rate is 80 to 89%. • D: the mortality rate is 50 to 79%. • E: the mortality rate is 0 to 49%.

[3] = test system: Small Brown Planthopper (Laodelphax striatellus); experiment: Insecticidal test on small brown planthopper, dip treatment of rice seedlings; details: 192 h, rice seedling dip, 8 days after inoculation, read-out: insecticidal efficacy (corrected mortality rate) against small brown planthopper
Description: Insecticidal Test on Small Brown Planthopper (Laodelphax striatellus)
The compounds represented by the general formula (1) of the present invention or salts thereof were separately dispersed in water and diluted to 50 ppm or 500 ppm. Rice plant seedlings (variety: Nihonbare) were dipped in the agrochemical dispersions for 30 seconds. After air-dried, each seedling was put into a separate glass test tube and inoculated with ten 3rd-instar larvae of small brown planthopper, and then the glass test tubes were capped with cotton plugs. At 8 days after the inoculation, the numbers of surviving larvae and dead larvae were counted, the corrected mortality rate was calculated according to the formula shown below, and the insecticidal efficacy was evaluated according to the criteria of Test Example 1. Corrected mortality rate (%)=(Survival rate in a non-treatment plot−Survival rate in a treatment plot)/(Survival rate in a non-treatment plot)×100 [Expression 2]

CSC(Nc1ccc(F)cc1)=C1C(=O)CN(c2ccc(C#N)nc2)N(C(=O)C2CC2)C1=O [Compound No. 1-44, (4EZ)-5-(2-(cyclopropanecarbonyl)-4-(((4-fluorophenyl)amino)(methylthio)methylene)-3,5-dioxo-tetrahydropyridazin-1(2H)-yl)picolinonitrile]
100%: mortality at 50 ppm [1] | mortality at 500 ppm [1] | mortality at 500 ppm [2] | mortality at 50 ppm [3] | mortality at 500 ppm [3]

CSC(Nc1ccc(F)cc1)=C1C(=O)CN(c2ccc(C(F)(F)F)nc2)N(C(=O)OC(C)(C)C)C1=O [Compound No. 1-63, tert-butyl (5EZ)-5-(((4-fluorophenyl)amino)(methylthio)methylene)-4,6-dioxo-2-[6-(trifluoromethyl)pyridin-3-yl]-tetrahydropyridazine-1(2H)-carboxylate]
100%: mortality at 50 ppm [1] | mortality at 500 ppm [1] | mortality at 50 ppm ([2]; 50 ppm) | mortality at 500 ppm [2] | mortality at 50 ppm [3] | mortality at 500 ppm [3]

CCCNC(=O)N1C(=O)C(=C(Nc2ccc(F)cc2)SC)C(=O)CN1c1ccc(C#N)nc1 [Compound No. 1-182, (5EZ)-2-(6-cyanopyridin-3-yl)-5-(((4-fluorophenyl)amino)(methylthio)methylene)-4,6-dioxo-N-propyl-tetrahydropyridazine-1(2H)-carboxamide]
100%: mortality at 50 ppm [3] | mortality at 500 ppm [3]

CSC(Nc1ccc(F)cc1)=C1C(=O)CN(c2ccc(C#N)nc2)N(C)C1=O [Compound No. 1-197, (4EZ)-5-(4-(((4-fluorophenyl)amino)(methylthio)methylene)-2-methyl-3,5-dioxo-tetrahydropyridazin-1(2H)-yl)picolinonitrile]
100%: mortality at 50 ppm [1] | mortality at 500 ppm [1] | mortality at 50 ppm [3] | mortality at 500 ppm [3]
